Laboratory results reported in article PMC8149352 (Cancer Chemotherapy and Pharmacology, 2021).
Values joined by “and” are separate entries in the source; they are usually repeats but may differ in a detail not shown here. Equal entries are not always repeated. Where two headings read alike, the source gives them in different places.

What was measured:
[1] = Part A safety: adverse events (NCI CTCAE v5.0), safety population; format: in vivo, human (patients with advanced solid tumors)
Description: (§1) This was an open-label, parallel-group, phase 1 study consisting of a 2-part core phase and an extension phase. Only results for the core phases are reported herein (Supplementary Fig. 1). […] Blood samples for PK analysis were obtained on days 1 and 10 at predose, and at 0.5, 1, 2, 4, 6, 9, 12, 24, and 48 h postdose. Pamiparib plasma concentrations were determined using a validated liquid chromatography–mass spectrometry/mass spectrometry method (lower limit of quantification 1.0 ng/mL) at Covance Laboratory Services (Salt Lake City, Utah).
(§2) Adverse events (AEs) were monitored throughout the study and were graded according to the National Cancer Institute Common Terminology Criteria v5.0.
(§3) The safety population included all patients who received at least one dose of pamiparib. […] Plasma PK parameters were calculated from pamiparib concentration–time profiles using standard noncompartmental methods. PK parameters were calculated using Phoenix WinNonlin v6.4 or higher (Certara, Princeton, NJ, USA). […] Data for each treatment part were analyzed separately. Log-transformed AUC and Cmax values were analyzed using a linear mixed-effect model analysis assuming a fixed effect for treatment and a random effect for patients. The study design called for ~ 24 patients (12 in each part) to be enrolled to ensure at least 20 (10 in each part) completed the study. This sample size was based on the precedent set by other PK studies of a similar nature and was not based on power calculations.

[2] = parameters: method as in not given; conditions: in vitro and animal studies; ref not given; cited from earlier work
[3] = parameters: method as in earlier work; conditions: cited from earlier work
[4] = system: poly(ADP-ribose) synthesis in peripheral blood mononuclear cells; parameters: method as in earlier work; conditions: pamiparib doses of 10 mg or higher; cited from earlier work
[5] = Part A: effect of strong CYP3A inducer rifampin on single-dose pamiparib plasma PK (phase 1 DDI study); format: in vivo, human (patients with advanced solid tumors); conditions: for Tmax: read-out: pamiparib tmax, median (range)
Description: as §1, with “Utah). […]” for “Utah).”
as §3

[6] = Part B: effect of strong CYP3A inhibitor itraconazole on single-dose pamiparib plasma PK (phase 1 DDI study); format: in vivo, human (patients with solid tumors); conditions: for half-life / AUC(0-inf) / AUC(0-t) / Tmax / Cmax: human; for half-life / AUC(0-inf) / AUC(0-t) / Tmax: plasma, oral; for AUC(0-inf): N = 12, read-out: pamiparib AUC0-inf, GLSM (% CV); for AUC(0-t): N = 12, read-out: pamiparib AUC0-tlast, GLSM (% CV); for Tmax: N = 12, read-out: pamiparib tmax, median (range); for Cmax: N = 12, plasma, read-out: pamiparib Cmax, GLSM (% CV)
Description: Part B of the core phase assessed the effect of the strong CYP3A inhibitor itraconazole on the PK of pamiparib in patients with solid tumors. All patients received a single dose of oral pamiparib 20 mg on days 1 and 7, and oral itraconazole 200 mg QD on days 3–8. The 20-mg pamiparib dose, the lowest dose strength available and one-sixth of the highest phase 1 dose (120 mg), was deemed sufficient to cover the plasma exposure increase due to complete blockade of CYP3A by itraconazole. Part B patients fasted for at least 8 h before and at least 4 h after pamiparib administration, except for day 7 upon which itraconazole administration occurred ~ 30 min after completing a meal and pamiparib administration followed within 5 min of itraconazole administration. Blood samples for PK analysis were obtained on days 1 and 7 at the same time points listed above for Part A. After completing the core phase in Part A and Part B, patients were offered participation in the extension phase, in which they were to receive pamiparib PO BID in 28-day cycles until disease progression, unacceptable toxicity, withdrawal of consent, or any other reason for discontinuation. […]
as §3

[7] = system: cytochromes P450 3A (CYP3A) and P450 2C8; parameters: method as in unpublished data; conditions: in vitro phenotyping study; ref unpublished data; cited from earlier work
[8] = Part B safety: adverse events (NCI CTCAE v5.0), safety population; format: in vivo, human (patients with solid tumors)
Description: Part B of the core phase assessed the effect of the strong CYP3A inhibitor itraconazole on the PK of pamiparib in patients with solid tumors. All patients received a single dose of oral pamiparib 20 mg on days 1 and 7, and oral itraconazole 200 mg QD on days 3–8. The 20-mg pamiparib dose, the lowest dose strength available and one-sixth of the highest phase 1 dose (120 mg), was deemed sufficient to cover the plasma exposure increase due to complete blockade of CYP3A by itraconazole. Part B patients fasted for at least 8 h before and at least 4 h after pamiparib administration, except for day 7 upon which itraconazole administration occurred ~ 30 min after completing a meal and pamiparib administration followed within 5 min of itraconazole administration. Blood samples for PK analysis were obtained on days 1 and 7 at the same time points listed above for Part A. After completing the core phase in Part A and Part B, patients were offered participation in the extension phase, in which they were to receive pamiparib PO BID in 28-day cycles until disease progression, unacceptable toxicity, withdrawal of consent, or any other reason for discontinuation.
as §2, §3

P-glycoprotein = system: P-glycoprotein; parameters: method as in PMID 32652442; conditions: cited from earlier work
[9] = Part A (N = 12), by treatment period
[10] = Part A, rifampin 600 mg QD coadministration
[11] = pamiparib 20 mg alone, day 1, reference
[12] = pamiparib 20 mg day 7 with itraconazole 200 mg QD, test
[13] = Part B (N = 13; N = 12 for pamiparib with itraconazole), by treatment period

Question: For C[C@]12CCCN1CC1=NNC(=O)c3cc(F)cc4[nH]c2c1c34 [Pamiparib], which “All TEAEs (any grade), patients” value [1, 9] is on record?
Answer: 1 (8.3) n (%)

Question: And the “Any treatment-related TEAE, patients” value [1, 9]?
Answer: 0 n (%)

Question: What about the “Grade >= 3 TEAE, patients” value [1, 9] of the same compound?
Answer: 0 n (%)

Question: And the “Serious AE, patients” value [1, 9]?
Answer: 0 n (%)

Question: What about the “Treatment-related TEAE related to both, patients” value [1, 9] of the same compound?
Answer: 0 n (%)

Question: And the “Treatment-related TEAE related to pamiparib only, patients” value [1, 9]?
Answer: 0 n (%)

Question: What about the “Treatment-related TEAE related to rifampin only, patients” value [1, 9] of the same compound?
Answer: 0 n (%)

Question: And the tolerability ([1]; single dose 60 mg pamiparib alone or coadministered with 600 mg rifampin)?
Answer: well tolerated

Question: What about the clastogenicity [2] of the same compound?
Answer: clastogenic activity

Question: And the “accumulation ratio for AUC (95% CI)” value ([3]; 60 mg BID)?
Answer: 2.37 (95% CI, 1.61–3.50)

Question: And the “accumulation ratio for Cmax (95% CI)” value ([3]; 60 mg BID)?
Answer: 1.99 (95% CI, 1.47–2.69)

Question: And the geometric mean half-life ([3]; 60 mg BID)?
Answer: 13.5 h

Question: And the tolerability ([3]; first-in-human study)?
Answer: well tolerated

Question: And the “median time to maximum concentration (tmax)” value ([3]; first-in-human study, oral)?
Answer: 1 to 2 h

Question: And the anti-tumor activity ([3]; patients with high-grade epithelial non-mucinous ovarian cancer)?
Answer: preliminary anti-tumor activity

Question: And the “sustained inhibition of poly(ADP-ribose) synthesis in peripheral blood mononuclear cells” value [4]?
Answer: ~ 80%

Question: What about the “reduction of pamiparib plasma exposure (AUC) with rifampin coadministration” value ([5]; Part A, AUC0-tlast to AUC0-inf) of the same compound?
Answer: 38–43%

Question: What about the “reduction of pamiparib AUC0-inf (geometric mean) with rifampin versus day 1” value [5, 10] of the same compound?
Answer: ~43%

Question: And the “reduction of pamiparib AUC0-tlast (geometric mean) with rifampin versus day 1” value [5, 10]?
Answer: ~ 38% and 38%

Question: What about the half-life ([5]; human, plasma, oral, 60 mg, Part A, pamiparib 60 mg alone, day 1, reference, N = 9, read-out: pamiparib t1/2, median (range) (converted)) of the same compound?
Answer: 13.4 h

Question: What about the half-life ([5]; human, plasma, oral, 60 mg, Part A, pamiparib 60 mg alone, read-out: pamiparib mean t1/2 (converted)) of the same compound?
Answer: 12.5 h

Question: And the half-life ([5]; human, plasma, oral, Part A, pamiparib 60 mg day 10 with rifampin 600 mg QD, test, N = 11, read-out: pamiparib t1/2, median (range) (converted))?
Answer: 7.7 h

Question: And the half-life ([5]; human, plasma, oral, Part A, pamiparib 60 mg in combination with rifampin, read-out: pamiparib mean t1/2 (converted))?
Answer: 7.94 h

Question: What about the AUC(0-inf) ([5]; human, plasma, oral, Part A, pamiparib 60 mg alone, day 1, reference, N = 9, read-out: pamiparib AUC0-inf, GLSM (% CV)) of the same compound?
Answer: 29500 ng·h/mL

Question: And the AUC(0-t) ([5]; human, plasma, oral, Part A, pamiparib 60 mg alone, day 1, reference, N = 11, read-out: pamiparib AUC0-tlast, GLSM (% CV))?
Answer: 28800 ng·h/mL

Question: What about the Tmax ([5]; human, plasma, oral, Part A, pamiparib 60 mg alone, day 1, reference, N = 11) of the same compound?
Answer: 2 h

Question: What about the Tmax ([5]; human, plasma, oral) of the same compound?
Answer: 2 h

Question: What about the Cmax ([5]; human, Part A, single oral pamiparib 60 mg alone, day 1, reference, N = 11, plasma, read-out: pamiparib Cmax, GLSM (% CV)) of the same compound?
Answer: 1990 ng/mL

Question: And the half-life ([6]; 20 mg, pamiparib 20 mg alone, day 1, reference, N = 12, read-out: pamiparib t1/2, median (range) (converted))?
Answer: 9.3 h

Question: What about the AUC(0-inf) [6, 11] of the same compound?
Answer: 8440 ng·h/mL

Question: And the AUC(0-t) [6, 11]?
Answer: 7840 ng·h/mL

Question: What about the Tmax [6, 11] of the same compound?
Answer: 2 h

Question: What about the AUC(0-inf) [6, 12] of the same compound?
Answer: 8380 ng·h/mL

Question: And the AUC(0-t) [6, 12]?
Answer: 7790 ng·h/mL

Question: And the half-life ([6]; pamiparib 20 mg day 7 with itraconazole 200 mg QD, test, N = 12, read-out: pamiparib t1/2, median (range) (converted))?
Answer: 11.2 h

Question: What about the Tmax [6, 12] of the same compound?
Answer: 1 h

Question: What about the half-life ([6]; pamiparib 20 mg in combination with itraconazole, read-out: pamiparib mean t1/2 (converted)) of the same compound?
Answer: 12 h

Question: What about the Cmax ([6]; single oral pamiparib 20 mg alone, day 1, reference) of the same compound?
Answer: 665 ng/mL

Question: And the Cmax ([6]; single oral pamiparib 20 mg on day 7 with itraconazole 200 mg QD (days 3-8), test)?
Answer: 699 ng/mL

Question: What about the “pamiparib mean t1/2” value ([6]; pamiparib 20 mg alone) of the same compound?
Answer: 11.9 h

Question: And the enzymes mediating metabolism [7]?
Answer: primarily mediated by cytochromes P450 3A (CYP3A) and P450 2C8

Question: What about the “All TEAEs (any grade), patients” value [8, 13] of the same compound?
Answer: 2 (15.4) n (%)

Question: What about the “Any treatment-related TEAE, patients” value [8, 13] of the same compound?
Answer: 1 (7.7) n (%)

Question: And the “Grade >= 3 TEAE, patients” value [8, 13]?
Answer: 0 n (%)

Question: What about the “Serious AE, patients” value [8, 13] of the same compound?
Answer: 0 n (%)

Question: And the “Treatment-related TEAE related to both, patients” value [8, 13]?
Answer: 0 n (%)

Question: What about the “Treatment-related TEAE related to itraconazole only, patients” value [8, 13] of the same compound?
Answer: 0 n (%)

Question: And the “Treatment-related TEAE related to pamiparib only, patients” value [8, 13]?
Answer: 1 (7.7) n (%)

Question: What about the “Serious AE related to both, patients” value ([8]; Part B, by treatment period) of the same compound?
Answer: 0 n (%)

Question: What about the “Serious AE related to itraconazole only, patients” value ([8]; Part B, by treatment period) of the same compound?
Answer: 0 n (%)

Question: And the “Serious AE related to pamiparib only, patients” value ([8]; Part B, by treatment period)?
Answer: 0 n (%)

Question: What about the tolerability ([8]; single dose 20 mg pamiparib alone or coadministered with 200 mg itraconazole) of the same compound?
Answer: well tolerated

Question: And the P-glycoprotein substrate status (P-glycoprotein)?
Answer: not a substrate of P-glycoprotein
